Assay results from patent US8563714B2, “Bridged spiro [2.4] heptane derivatives as ALX receptor and/or FPRL2 agonists” (Actelion Pharmaceuticals Ltd., priority 2009, dated 2013).

Legend:
human FPRL2 = target: T1, human FPRL2 (Homo sapiens, UniProt P25089); test: Intracellular calcium measurements (FLIPR), agonistic activity in HEK293-hFPRL2-Gα16 cells; format: cell-based; conditions: Fluo-4 calcium FLIPR, normalized to GLY14-Humanin 100 nM
T1 construct: expressed in transfected cells; host or cells: HEK293 (HEK293-hFPRL2-Gα16)
T1 sequence (P25089 1-353): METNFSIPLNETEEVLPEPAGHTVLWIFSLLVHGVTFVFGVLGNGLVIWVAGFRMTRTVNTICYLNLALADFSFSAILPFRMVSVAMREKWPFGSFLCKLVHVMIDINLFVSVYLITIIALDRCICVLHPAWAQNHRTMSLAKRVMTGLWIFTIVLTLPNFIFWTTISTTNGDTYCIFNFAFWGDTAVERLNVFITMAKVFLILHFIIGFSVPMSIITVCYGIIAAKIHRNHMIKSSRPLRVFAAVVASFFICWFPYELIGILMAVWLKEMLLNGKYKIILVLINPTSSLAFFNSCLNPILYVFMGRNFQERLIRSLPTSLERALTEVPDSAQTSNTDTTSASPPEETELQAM
In short: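 Peak values after baseline subtraction are expressed relative to 100 nM Gly14-Humanin; compounds diluted in assay buffer from 10 mM DMSO stocks.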

human ALX receptor = target: T2, human ALX receptor (Homo sapiens, UniProt P25090); test: Intracellular calcium measurements (FLIPR), agonistic activity in HEK293-hALXR-Gα16 cells; format: cell-based; conditions: Fluo-4 calcium FLIPR, normalized to WKYMVm 10 nM
T2 construct: expressed in transfected cells; host or cells: HEK293 (HEK293-hALXR-Gα16)
T2 sequence (P25090 1-351): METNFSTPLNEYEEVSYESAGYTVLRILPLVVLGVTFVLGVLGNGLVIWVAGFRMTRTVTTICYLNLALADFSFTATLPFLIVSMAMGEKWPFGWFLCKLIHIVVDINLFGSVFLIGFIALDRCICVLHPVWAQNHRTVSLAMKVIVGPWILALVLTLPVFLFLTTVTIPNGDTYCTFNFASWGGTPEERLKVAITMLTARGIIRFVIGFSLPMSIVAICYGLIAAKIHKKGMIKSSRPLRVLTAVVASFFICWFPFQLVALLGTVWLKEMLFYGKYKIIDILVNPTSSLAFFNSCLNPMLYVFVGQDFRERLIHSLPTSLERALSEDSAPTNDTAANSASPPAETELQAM
In short: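 HEK293 cells expressing hALXR and Gα16 were loaded with 1 μM Fluo-4 AM and 20 mM HEPES for 60 min at 37°C, then exposed to serially diluted compound. FLIPR fluorescence was read at ex 488/em 540 nm. Baseline-subtracted peak responses were normalized to 10 nM WKYMVm.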

EC50 (human FPRL2) [nM]	EC50 (human ALX receptor) [nM]	SMILES
6370	166	N#Cc1cnc(NC(=O)[C@H]2[C@H](C(=O)NCCCCN3CCCC3)[C@H]3C=C[C@@H]2C32CC2)s1 (racemic) [Example 130, (5R*)—N^5-(5-Cyano-thiazol-2-yl)-(6R*)—N^6-(4-pyrrolidin-1-yl-butyl)-(4S*,7R*)-[4,7-ethenylene-spiro[2.4]heptane]-5,6-dicarboxamide]
358	173	O=C(NCCCCN1CCCC1)[C@H]1[C@H](C(=O)NCc2ccco2)[C@@H]2C=C[C@H]1C21CC1 (racemic) [Example 131, (5R*)—N^5-(Furan-2-yl-methyl)-(6R*)—N^6-(4-pyrrolidin-1-yl-butyl)-(4S*,7R*)-[4,7-ethenylene-spiro[2.4]heptane]-5,6-dicarboxamide]
122	263	O=C(NCCCCN1CCCC1)[C@H]1[C@H](C(=O)Nc2ccc(OC(F)(F)F)cc2)[C@@H]2C=C[C@H]1C21CC1 (racemic) [Example 133, (5R*)—N^5-(4-Trifluoromethoxyphenyl)-(6R*)—N^6-(4-pyrrolidin-1-yl-butyl)-(4S*,7R*)-[4,7-ethenylene-spiro[2.4]heptane]-5,6-dicarboxamide]
612	319	O=C(NCCCCN1CCCC1)[C@H]1[C@H](C(=O)NCCOc2ccccc2)[C@@H]2C=C[C@H]1C21CC1 (racemic) [Example 134, (5R*)—N^5-(2-Phenoxy-ethyl)-(6R*)—N^6-(4-pyrrolidin-1-yl-butyl)-(4S*,7R*)-[4,7-ethenylene-spiro[2.4]heptane]-5,6-dicarboxamide]
224	352	CC(C)CCNC(=O)[C@H]1[C@H](C(=O)NCCCCN2CCCC2)[C@H]2C=C[C@@H]1C21CC1 (racemic) [Example 135, (5R*)—N^5-(3-Methyl-butyl)-(6R*)—N^6-(4-pyrrolidin-1-yl-butyl)-(4S*,7R*)-[4,7-ethenylene-spiro[2.4]heptane]-5,6-dicarboxamide]
1180	365	CCCCNC(=O)[C@H]1[C@H](C(=O)NCCCCN2CCCC2)[C@H]2C=C[C@@H]1C21CC1 (racemic) [Example 136, (5R*)—N^5-Butyl-(6R*)—N^6-(4-pyrrolidin-1-yl-butyl)-(4S*,7R*)-[4,7-ethenylene-spiro[2.4]heptane]-5,6-dicarboxamide]
192	556	Cc1ccc(CNC(=O)[C@H]2[C@H](C(=O)NCCCCN3CCCC3)[C@H]3C=C[C@@H]2C32CC2)o1 (racemic) [Example 137, (5R*)—N^5-(5-Methyl-furan-2-yl-methyl)-(6R*)—N^6-(4-pyrrolidin-1-yl-butyl)-(4S*,7R*)-[4,7-ethenylene-spiro[2.4]heptane]-5,6-dicarboxamide]
332	570	Cc1nc2cc(NC(=O)[C@H]3[C@H](C(=O)NCCCCN4CCCC4)[C@H]4C=C[C@@H]3C43CC3)ccc2s1 (racemic) [Example 138, (5R*)—N^5-(2-Methyl-benzothiazol-5-yl)-(6R*)—N^6-(4-pyrrolidin-1-yl-butyl)-(4S*,7R*)-[4,7-ethenylene-spiro[2.4]heptane]-5,6-dicarboxamide]
152	731	O=C(NCCCCN1CCCC1)[C@H]1[C@H](C(=O)NCCc2ccccc2)[C@@H]2C=C[C@H]1C21CC1 (racemic) [Example 139, (5R*)—N^5-(2-Phenyl-ethyl)-(6R*)—N^6-(4-pyrrolidin-1-yl-butyl)-(4S*,7R*)-[4,7-ethenylene-spiro[2.4]heptane]-5,6-dicarboxamide]
1310	748	CC(=O)CCCNC(=O)[C@H]1[C@H](C(=O)NCCCCN2CCCC2)[C@H]2C=C[C@@H]1C21CC1 (racemic) [Example 140, (5R*)—N^5-(4-oxo-pentyl)-(6R*)—N^6-(4-pyrrolidin-1-yl-butyl)-(4S*,7R*)-[4,7-ethenylene-spiro[2.4]heptane]-5,6-dicarboxamide]

The remaining lines, values behind:

SMILES	EC50 (human FPRL2) [nM]	EC50 (human ALX receptor) [nM]
O=C(NCCCCN1CCCC1)C1C(C(=O)NCc2ccc(Br)cc2)C2C=CC1C21CC1 (racemic) [Example 118, (5R*)—N^5-(4-Bromophenyl-methyl)-(6R*)—N^6-(4-pyrrolidin-1-yl-butyl)-(4S*,7R*)-[4,7-ethenylene-spiro[2.4]heptane]-5,6-dicarboxamide]	140	47
O=C(NCCCCN1CCCC1)C1C(C(=O)Nc2ccc(Br)cn2)C2C=CC1C21CC1 (racemic) [Example 119, (5R*)—N^5-(5-Bromo-pyridin-2-yl)-(6R*)—N^6-(4-pyrrolidin-1-yl-butyl)-(4S*,7R*)-[4,7-ethenylene-spiro[2.4]heptane]-5,6-dicarboxamide]	404	17
O=C(NCCCCN1CCCC1)[C@H]1[C@H](C(=O)Nc2ncc(Br)s2)[C@@H]2C=C[C@H]1C21CC1 (racemic) [Example 120, (5R*)—N^5-(5-Bromo-thiazol-2-yl)-(6R*)—N^6-(4-pyrrolidin-1-yl-butyl)-(4S*,7R*)-[4,7-ethenylene-spiro[2.4]heptane]-5,6-dicarboxamide]	363	17
Cc1ccc(NC(=O)[C@H]2[C@H](C(=O)NCCCCN3CCCC3)[C@H]3C=C[C@@H]2C32CC2)nc1 (racemic) [Example 121, (5R*)—N^5-(5-Methyl-pyridin-2-yl)-(6R*)—N^6-(4-pyrrolidin-1-yl-butyl)-(4S*,7R*)-[4,7-ethenylene-spiro[2.4]heptane]-5,6-dicarboxamide]	454	95
CCCCCNC(=O)[C@H]1[C@H](C(=O)NCCCCN2CCCC2)[C@H]2C=C[C@@H]1C21CC1 (racemic) [Example 122, (5R*)—N^5-Pentyl-(6R*)—N^6-(4-pyrrolidin-1-yl-butyl)-(4S*,7R*)-[4,7-ethenylene-spiro[2.4]heptane]-5,6-dicarboxamide]	496	79
Cc1ccc(CNC(=O)[C@H]2[C@H](C(=O)NCCCCN3CCCC3)[C@H]3C=C[C@@H]2C32CC2)cc1 (racemic) [Example 123, (5R*)—N^5-[(4-Methyl-phenyl)-methyl]-(6R*)—N^6-(4-pyrrolidin-1-yl-butyl)-(4S*,7R*)-[4,7-ethenylene-spiro[2.4]heptane]-5,6-dicarboxamide]	332	46
COC(=O)CCNC(=O)[C@H]1[C@H](C(=O)NCCCCN2CCCC2)[C@H]2C=C[C@@H]1C21CC1 (racemic) [Example 124, (5R*)—N^5-(2-Methoxycarbonyl-ethyl)-(6R*)—N^6-(4-pyrrolidin-1-yl-butyl)-(4S*,7R*)-[4,7-ethenylene-spiro[2.4]heptane]-5,6-dicarboxamide]	1150	52
O=C(NCCCCN1CCCC1)[C@H]1[C@H](C(=O)NCC2CCCCC2)[C@@H]2C=C[C@H]1C21CC1 (racemic) [Example 125, (5R*)—N^5-(Cyclohexyl-methyl)-(6R*)—N^6-(4-pyrrolidin-1-yl-butyl)-(4S*,7R*)-[4,7-ethenylene-spiro[2.4]heptane]-5,6-dicarboxamide]	268	60
CC(=O)CCCCNC(=O)[C@H]1[C@H](C(=O)NCCCCN2CCCC2)[C@H]2C=C[C@@H]1C21CC1 (racemic) [Example 127, (5R*)—N^5-(5-oxo-hexyl)-(6R*)—N^6-(4-pyrrolidin-1-yl-butyl)-(4S*,7R*)-[4,7-ethenylene-spiro[2.4]heptane]-5,6-dicarboxamide]	2740	95
O=C(NCCCCN1CCCC1)[C@H]1[C@H](C(=O)Nc2ncc([N+](=O)[O-])s2)[C@@H]2C=C[C@H]1C21CC1 (racemic) [Example 128, (5R*)—N^5-(5-Nitro-thiazol-2-yl)-(6R*)—N^6-(4-pyrrolidin-1-yl-butyl)-(4S*,7R*)-[4,7-ethenylene-spiro[2.4]heptane]-5,6-dicarboxamide]	3440	120
O=C(NCCCCN1CCCC1)[C@H]1[C@H](C(=O)Nc2ncc(Cl)s2)[C@@H]2C=C[C@H]1C21CC1 (racemic) [Example 129, (5R*)—N^5-(5-Chloro-thiazol-2-yl)-(6R*)—N^6-(4-pyrrolidin-1-yl-butyl)-(4S*,7R*)-[4,7-ethenylene-spiro[2.4]heptane]-5,6-dicarboxamide]	1190	121
